Source: ChEMBL document CHEMBL1821576, “Synthesis and antitumour activity of β-hydroxyisovalerylshikonin analogues” (Eur J Med Chem, 2011)

Experiments:
DU-145 [1] = assay: Cytotoxicity against human DU145 cells by MTT assay; type: functional, cell-based
HeLa [2] = assay: Cytotoxicity against human HeLa cells by MTT assay; type: functional, cell-based
HeLa [3] = assay: Ratio of cyclophosphamide IC50 to compound IC50 for human HeLa cells; type: functional
DU-145 [4] = assay: Ratio of cyclophosphamide IC50 to compound IC50 for human DU145 cells; type: functional
HeLa [5] = assay: Ratio of beta-hydroxyisovalerylshikonin IC50 to compound IC50 for human HeLa cells; type: functional
DU-145 [6] = assay: Ratio of beta-hydroxyisovalerylshikonin IC50 to compound IC50 for human DU145 cells; type: functional

## CC(C)=CC[C@@H](OC(=O)CCO)C1=CC(=O)c2c(O)ccc(O)c2C1=O
DU-145 [1]
  IC50: 55.3 µM
HeLa [2]
  IC50: 67.6 µM

## CCC(O)(CC)CC(=O)O[C@H](CC=C(C)C)C1=CC(=O)c2c(O)ccc(O)c2C1=O
DU-145 [1]
  IC50: 67 µM
HeLa [2]
  IC50: 52 µM

## CC(=O)OCCC(=O)O[C@H](CC=C(C)C)C1=CC(=O)c2c(O)ccc(O)c2C1=O
DU-145 [1]
  IC50: 15.7 µM
HeLa [2]
  IC50: 17.3 µM

## CCCCC(CC(=O)O[C@H](CC=C(C)C)C1=CC(=O)c2c(O)ccc(O)c2C1=O)OC(C)=O (stereo partly drawn)
DU-145 [1]
  IC50: 67.7 µM
HeLa [2]
  IC50: 73.5 µM

## CC(C)=CC[C@@H](OC(=O)c1ccoc1)C1=CC(=O)c2c(O)ccc(O)c2C1=O
DU-145 [1]
  IC50: > 100 µM
HeLa [2]
  IC50: > 100 µM

## CC(C)=CC[C@@H](OC(=O)c1ccco1)C1=CC(=O)c2c(O)ccc(O)c2C1=O
DU-145 [1]
  IC50: > 100 µM
HeLa [2]
  IC50: 80.3 µM

## CC(C)=CC[C@@H](OC(=O)C1CCOC1)C1=CC(=O)c2c(O)ccc(O)c2C1=O (stereo partly drawn)
DU-145 [1]
  IC50: 47.5 µM
HeLa [2]
  IC50: 73.5 µM

## CC(C)=CC[C@@H](OC(=O)C1CCCO1)C1=CC(=O)c2c(O)ccc(O)c2C1=O (stereo partly drawn)
HeLa [3]
  Ratio IC50: 4
DU-145 [1]
  IC50: 10.5 µM
HeLa [2]
  IC50: 17 µM
DU-145 [4]
  Ratio IC50: 5

## CC(C)=CC[C@@H](OC(=O)C1CCCOC1)C1=CC(=O)c2c(O)ccc(O)c2C1=O (stereo partly drawn)
DU-145 [1]
  IC50: 29.7 µM
HeLa [2]
  IC50: 60.5 µM

## CC(C)=CC[C@@H](OC(=O)C1CCCCO1)C1=CC(=O)c2c(O)ccc(O)c2C1=O (stereo partly drawn)
DU-145 [1]
  IC50: 24.7 µM
HeLa [2]
  IC50: > 100 µM

## CC(C)=CC[C@@H](OCCO)C1=CC(=O)c2c(O)ccc(O)c2C1=O
HeLa [5]
  Ratio IC50: 3
HeLa [3]
  Ratio IC50: 4
DU-145 [1]
  IC50: 9.9 µM
DU-145 [6]
  Ratio IC50: 2
HeLa [2]
  IC50: 18.6 µM
DU-145 [4]
  Ratio IC50: 5

## CC(=O)OCCO[C@H](CC=C(C)C)C1=CC(=O)c2c(O)ccc(O)c2C1=O
DU-145 [1]
  IC50: 15.5 µM
HeLa [2]
  IC50: 41.5 µM

## COCCO[C@H](CC=C(C)C)C1=CC(=O)c2c(O)ccc(O)c2C1=O
DU-145 [1]
  IC50: 43.2 µM
HeLa [2]
  IC50: 62.4 µM

## CC[C@@](C)(O)CC(=O)O[C@H](CC=C(C)C)C1=CC(=O)c2c(O)ccc(O)c2C1=O
DU-145 [1]
  IC50: 12.7 µM
HeLa [2]
  IC50: 17.9 µM

## CC(C)=CC[C@@H](OC[C@@H](C)O)C1=CC(=O)c2c(O)ccc(O)c2C1=O
DU-145 [1]
  IC50: 14.3 µM
HeLa [2]
  IC50: 22.5 µM

## CC(C)=CC[C@@H](OC[C@H](C)O)C1=CC(=O)c2c(O)ccc(O)c2C1=O
DU-145 [1]
  IC50: 24.5 µM
HeLa [2]
  IC50: 40.3 µM

## CCCCC(C)(O)CC(=O)O[C@H](CC=C(C)C)C1=CC(=O)c2c(O)ccc(O)c2C1=O (mixture of isomers)
DU-145 [1]
  IC50: 76.5 µM
HeLa [2]
  IC50: 60.6 µM

## CCCC(O)CC(=O)O[C@H](CC=C(C)C)C1=CC(=O)c2c(O)ccc(O)c2C1=O (mixture of isomers)
DU-145 [1]
  IC50: > 100 µM
HeLa [2]
  IC50: 59.3 µM

## CCCCC(O)CC(=O)O[C@H](CC=C(C)C)C1=CC(=O)c2c(O)ccc(O)c2C1=O (mixture of isomers)
DU-145 [1]
  IC50: 45.3 µM
HeLa [2]
  IC50: 72.2 µM

## CC(C)=CC[C@@H](OC(=O)CC(O)c1ccccc1)C1=CC(=O)c2c(O)ccc(O)c2C1=O (mixture of isomers)
DU-145 [1]
  IC50: 17 µM
HeLa [2]
  IC50: 44.5 µM

## CCC(C)(O)CC(=O)O[C@H](CC=C(C)C)C1=CC(=O)c2c(O)ccc(O)c2C1=O (mixture of isomers)
DU-145 [1]
  IC50: 16 µM
HeLa [2]
  IC50: 25.2 µM

## CCCC(C)(O)CC(=O)O[C@H](CC=C(C)C)C1=CC(=O)c2c(O)ccc(O)c2C1=O (mixture of isomers)
DU-145 [1]
  IC50: 75 µM
HeLa [2]
  IC50: 72 µM

## CC(C)=CC[C@@H](OC(=O)CC(C)(O)C(C)C)C1=CC(=O)c2c(O)ccc(O)c2C1=O (mixture of isomers)
DU-145 [1]
  IC50: 16.9 µM
HeLa [2]
  IC50: 27.7 µM

## CCCCCCC(C)(O)CC(=O)O[C@H](CC=C(C)C)C1=CC(=O)c2c(O)ccc(O)c2C1=O (mixture of isomers)
DU-145 [1]
  IC50: > 100 µM
HeLa [2]
  IC50: > 100 µM

## CC(C)=CC[C@@H](OC(=O)CC(C)(O)c1ccccc1)C1=CC(=O)c2c(O)ccc(O)c2C1=O (mixture of isomers)
DU-145 [1]
  IC50: > 100 µM
HeLa [2]
  IC50: 85.7 µM

## CCCC(CC(=O)O[C@H](CC=C(C)C)C1=CC(=O)c2c(O)ccc(O)c2C1=O)OC(C)=O (mixture of isomers)
DU-145 [1]
  IC50: 55.7 µM
HeLa [2]
  IC50: 51.2 µM

## CC(C)=CC[C@@H](OCC(C)O)C1=CC(=O)c2c(O)ccc(O)c2C1=O (mixture of isomers)
DU-145 [1]
  IC50: 16.1 µM
HeLa [2]
  IC50: 24.7 µM

## CCC(O)CO[C@H](CC=C(C)C)C1=CC(=O)c2c(O)ccc(O)c2C1=O (mixture of isomers)
DU-145 [1]
  IC50: 16.4 µM
HeLa [2]
  IC50: 28.7 µM

## CC(=O)OC(C)CO[C@H](CC=C(C)C)C1=CC(=O)c2c(O)ccc(O)c2C1=O (mixture of isomers)
DU-145 [1]
  IC50: 16.6 µM
HeLa [2]
  IC50: 40.1 µM

## CCC(CO[C@H](CC=C(C)C)C1=CC(=O)c2c(O)ccc(O)c2C1=O)OC(C)=O (mixture of isomers)
DU-145 [1]
  IC50: 25.4 µM
HeLa [2]
  IC50: 44 µM

## COC(C)CO[C@H](CC=C(C)C)C1=CC(=O)c2c(O)ccc(O)c2C1=O (mixture of isomers)
DU-145 [1]
  IC50: 16.6 µM
HeLa [2]
  IC50: 53.4 µM

## CCC(CO[C@H](CC=C(C)C)C1=CC(=O)c2c(O)ccc(O)c2C1=O)OC (mixture of isomers)
DU-145 [1]
  IC50: 45.7 µM
HeLa [2]
  IC50: 63.5 µM

## CC[C@](C)(O)CC(=O)O[C@H](CC=C(C)C)C1=CC(=O)c2c(O)ccc(O)c2C1=O (racemic)
DU-145 [1]
  IC50: 20.5 µM
HeLa [2]
  IC50: 30.2 µM

## CC(C)=CC[C@@H](OC(=O)CC(C)(C)O)C1=CC(=O)c2c(O)ccc(O)c2C1=O [BETA-HYDROXYISOVALERYLSHIKONIN]
DU-145 [1]
  IC50: 16.8 µM
HeLa [2]
  IC50: 55 µM

## O=P1(N(CCCl)CCCl)NCCCO1 (stereo not drawn) [CYCLOPHOSPHAMIDE ANHYDROUS]
DU-145 [1]
  IC50: 52.5 µM
HeLa [2]
  IC50: 71.4 µM

## O=c1[nH]cc(F)c(=O)[nH]1 [FLUOROURACIL]
DU-145 [1]
  IC50: > 100 µM
HeLa [2]
  IC50: > 100 µM
